Assay results: patent US10980805B2, “Aza-pyridone compounds and uses thereof” (Janssen BioPharma, Inc., priority 2013, dated 2021)
pEC50, pIC50: −log10 of the molar value.

Tests used:
[1] = test system: Influenza strain A549_A/WSN/33 (H1N1); test: Influenza antiviral assay (neuraminidase fluorescence readout); type: cell-based, Influenza virus; details: Influenza A virus, read-out: % Inhibition (EC50 class, Table 2)
[2] = biological target: Full length EN PA (influenza PA endonuclease) (Influenza A virus, UniProt P15659); test: EN PA FRET inhibition assay; type: biochemical; details: FRET probe, mean of a minimum of two independent experiments, read-out: Potency (IC50 class, Table 3)

For CN1CC(C(c2ccccc2)c2cccc(OCC3CC3)c2)n2ncc(=O)c(O)c2C1=O (centres unmarked) [Compound 55], the pEC50 [1] was 4.00 to 4.70 and the pIC50 [2] was over 6.60.
For CN1CC(C2c3cc(F)ccc3CCc3c(F)cccc32)n2ncc(=O)c(O)c2C1=O (centres unmarked) [Compound 56], the pEC50 [1] was over 4.70 and the pIC50 [2] was over 6.60.
CN1CC(C2c3ccccc3COc3ccccc32)n2ncc(=O)c(O)c2C1=O (centres unmarked) [Compound 57] was tested, and the pEC50 [1] was over 4.70 and the pIC50 [2] was over 6.60.
For CN1CC(C2c3ccc(F)cc3CCc3c(F)cccc32)n2ncc(=O)c(O)c2C1=O (centres unmarked) [Compound 59-A], the pEC50 [1] was over 4.70 and the pIC50 [2] was over 6.60.
For CN1CC(C(c2ccc(Cl)cc2)c2cccc(Cl)c2)n2ncc(=O)c(O)c2C1=O (centres unmarked) [Compound 60], the pEC50 [1] was over 4.70 and the pIC50 [2] was over 6.60.
CN1CC(C(c2ccc(F)cc2)c2cccc(Cl)c2)n2ncc(=O)c(O)c2C1=O (centres unmarked) [Compound 61] gave a pEC50 [1] of over 4.70 and a pIC50 [2] of over 6.60.
Molecule CN1CC(C(c2cccc(Cl)c2)c2ccccc2F)n2ncc(=O)c(O)c2C1=O (centres unmarked) [Compound 62] has a pEC50 [1] of over 4.70 and a pIC50 [2] of over 6.60.
O=C1c2c(O)c(=O)cnn2[C@@H](C(c2ccccc2)c2ccccc2)CN1C1CCOCC1 [Compound 63-A] gave a pEC50 [1] of over 4.70 and a pIC50 [2] of over 6.60.
O=C1c2c(O)c(=O)cnn2[C@H](C(c2ccccc2)c2ccccc2)CN1C1CCOCC1 [Compound 63-B] gave a pEC50 [1] of over 4.70 and a pIC50 [2] of 6.00 to 6.60.
Work on O=C1c2c(O)c(=O)cnn2C(C(c2ccccc2)c2ccccc2)CN1C1CCOCC1 (centres unmarked) [Compound 63] yielded a pEC50 [1] of over 4.70 and a pIC50 [2] of over 6.60.
CN1CC(C(c2ccccc2)c2cccc(O)c2)n2ncc(=O)c(O)c2C1=O (centres unmarked) [Compound 64] was tested, and the pEC50 [1] was over 4.70 and the pIC50 [2] was over 6.60.
Molecule CC(C)C(=O)Oc1c2n(ncc1=O)[C@@H](C1c3ccccc3CCc3ccccc31)CN(C)C2=O [Compound 65-A] has a pEC50 [1] of over 4.70 and a pIC50 [2] of over 6.60.
With CCN1C[C@H]([C@@H](c2ccccc2)c2cccc(Cl)c2)n2ncc(=O)c(OC(=O)C(C)C)c2C1=O [Compound 67-A] the pEC50 [1] was over 4.70 and the pIC50 [2] was over 6.60.
CC(C)N1C[C@@H](C(c2cccc(Cl)c2)c2cccc(Cl)c2)n2ncc(=O)c(O)c2C1=O [Compound 68-B] was tested, and the pEC50 [1] was over 4.70 and the pIC50 [2] was 6.00 to 6.60.
Molecule CC(C)C(=O)Oc1c2n(ncc1=O)[C@@H](C(c1ccccc1)c1ccccc1)CN(C(C)C)C2=O [Compound 69-A] has a pEC50 [1] of over 4.70 and a pIC50 [2] of over 6.60.
In the case of CC(C)C(=O)Oc1c2n(ncc1=O)[C@@H](C(c1cccc(F)c1)c1cccc(F)c1)CN(C(C)C)C2=O [Compound 70-A], the pEC50 [1] was over 4.70 and the pIC50 [2] was over 6.60.
In the case of CN1C[C@H]([C@@H]2c3cc(F)ccc3CCc3c(F)cccc32)n2ncc(=O)c(O)c2C1=O [Compound 71-A], the pEC50 [1] was over 4.70 and the pIC50 [2] was over 6.60.
With CN1C[C@H]([C@H]2c3cc(F)ccc3CCc3c(F)cccc32)n2ncc(=O)c(O)c2C1=O [Compound 71-B] the pEC50 [1] was over 4.70 and the pIC50 [2] was over 6.60.
In the case of CN1C[C@@H](C2c3cc(F)ccc3CCc3c(F)cccc32)n2ncc(=O)c(O)c2C1=O (some centres unmarked) [Compound 71], the pEC50 [1] was 4.00 to 4.70 and the pIC50 [2] was 6.00 to 6.60.
Molecule CCN1C[C@H](C(c2cccc(F)c2)c2cccc(F)c2)n2ncc(=O)c(OC(=O)C(C)C)c2C1=O [Compound 72-A] has a pEC50 [1] of over 4.70 and a pIC50 [2] of over 6.60.
In the case of CCCN1C[C@H](C(c2cccc(F)c2)c2cccc(F)c2)n2ncc(=O)c(O)c2C1=O [Compound 74-A], the pEC50 [1] was over 4.70 and the pIC50 [2] was over 6.60.
Work on O=C1c2c(O)c(=O)cnn2[C@@H](C(c2cccc(F)c2)c2cccc(F)c2)CN1Cc1ccccc1 [Compound 75-A] yielded a pEC50 [1] of over 4.70 and a pIC50 [2] of over 6.60.
CC(C)N1CC(C(c2ccccc2)c2cccc(-c3ccccc3)c2)n2ncc(=O)c(O)c2C1=O (centres unmarked) [Compound 78] showed a pEC50 [1] of over 4.70 and a pIC50 [2] of over 6.60.
Molecule CCN1C[C@H](C(c2ccccc2)c2cccc(Cl)c2)n2ncc(=O)c(OC(=O)c3cccnc3)c2C1=O (some centres unmarked) [Compound 79-A] has a pEC50 [1] of over 4.70 and a pIC50 [2] of over 6.60.
For CCCN1C[C@H](C(c2cccc(F)c2)c2cccc(F)c2)n2ncc(=O)c(OC(=O)C(C)C)c2C1=O [Compound 80-A], the pEC50 [1] was over 4.70 and the pIC50 [2] was over 6.60.
CN1C[C@H](C2c3ccc(F)cc3CCc3c(F)cccc32)n2ncc(=O)c(O)c2C1=O (some centres unmarked) [Compound 81-A] showed a pEC50 [1] of over 4.70 and a pIC50 [2] of over 6.60.
In the case of CN1C[C@@H](C2c3ccc(F)cc3CCc3c(F)cccc32)n2ncc(=O)c(O)c2C1=O (some centres unmarked) [Compound 81-B], the pEC50 [1] was 4.00 to 4.70 and the pIC50 [2] was over 6.60.
CN1C[C@H](C2c3cccc(F)c3CCc3c(F)cccc32)n2ncc(=O)c(O)c2C1=O [Compound 83-A] showed a pEC50 [1] of over 4.70 and a pIC50 [2] of over 6.60.
In the case of CN1C[C@@H](C2c3cccc(F)c3CCc3c(F)cccc32)n2ncc(=O)c(O)c2C1=O [Compound 83-B], the pEC50 [1] was 4.00 to 4.70 and the pIC50 [2] was 6.00 to 6.60.
Molecule CN1CC(C2c3cccc(F)c3CCc3c(F)cccc32)n2ncc(=O)c(O)c2C1=O (centres unmarked) [Compound 83] has a pEC50 [1] of over 4.70 and a pIC50 [2] of over 6.60.
In the case of CCCN1C[C@H](C(c2cccc(Cl)c2)c2cccc(Cl)c2)n2ncc(=O)c(O)c2C1=O [Compound 84-A], the pEC50 [1] was over 4.70 and the pIC50 [2] was over 6.60.
